This note sets out measurements from ChEMBL document CHEMBL1144190, “Structure-activity relationship study of a novel necroptosis inhibitor, necrostatin-7” (Bioorg Med Chem Lett, 2008).

The source made the active and inactive calls. The rule behind the calls is not given here.

The target in one assay is T1, Receptor-interacting serine/threonine-protein kinase 1 (Homo sapiens) (UniProt Q13546).
T1 sequence (whole entry): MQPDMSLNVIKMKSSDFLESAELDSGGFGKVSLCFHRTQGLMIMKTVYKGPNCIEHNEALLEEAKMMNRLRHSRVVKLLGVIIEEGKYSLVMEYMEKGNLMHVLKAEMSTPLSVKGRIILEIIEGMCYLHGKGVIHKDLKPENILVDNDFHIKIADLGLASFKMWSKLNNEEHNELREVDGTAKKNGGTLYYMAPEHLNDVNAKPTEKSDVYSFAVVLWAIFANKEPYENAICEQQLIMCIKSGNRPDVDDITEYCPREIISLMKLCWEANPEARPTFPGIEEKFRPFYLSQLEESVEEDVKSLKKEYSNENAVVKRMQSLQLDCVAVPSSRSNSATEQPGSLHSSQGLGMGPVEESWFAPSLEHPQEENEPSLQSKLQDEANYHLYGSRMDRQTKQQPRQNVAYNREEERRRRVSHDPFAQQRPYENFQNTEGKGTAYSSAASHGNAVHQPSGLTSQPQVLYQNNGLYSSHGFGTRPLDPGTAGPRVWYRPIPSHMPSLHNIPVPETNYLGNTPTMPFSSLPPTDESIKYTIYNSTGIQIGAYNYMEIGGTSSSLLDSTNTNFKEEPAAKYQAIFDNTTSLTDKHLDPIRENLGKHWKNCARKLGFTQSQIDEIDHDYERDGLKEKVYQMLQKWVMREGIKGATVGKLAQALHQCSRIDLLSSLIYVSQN
Kind of assay: Inhibition of GST-tagged human recombinant RIP1 kinase expressed in Sf9 cells.
For `N=C1S/C(=C\c2c[nH]nc2-c2ccc(S(=O)(=O)c3ccccc3)cc2)C(=O)N1c1nccs1`, the result was inactive.

The next assay concerns Jurkat. The experiment in a line: Inhibition of TNF-alpha-induced necroptosis in FADD-deficient human Jurkat cells. Format: functional, cell-based.
As for `Cc1ccc(-c2nocc2/C=C2\SC(=N)N(c3nccs3)C2=O)cc1`, the result was inactive.

As to `Cc1csc(N2C(=N)S/C(=C\c3c[nH]nc3-c3ccc(F)cc3)C2=O)n1`, the EC50 amounted to 5.25 µM. `N=C1S/C(=C\c2c[nH]nc2-c2ccccc2F)C(=O)N1c1nccs1`: the outcome was inactive. As for `N=C1S/C(=C\c2c[nH]nc2-c2ccc(F)c(N3CCOCC3)c2)C(=O)N1c1nccs1`, the EC50 stood at 2.9 µM.

For the molecule `N=C1S/C(=C\c2cc(CC(N)=O)[nH]c2-c2ccc(F)cc2)C(=O)N1c1nccs1`, the result was inactive. On the same count and under the same terms, the same measure for `N=C1S/C(=C\c2c[nH]nc2-c2ccccc2F)C(=O)N1c1nncs1`: “inactive”. In the case of `Cc1ccc(-c2n[nH]cc2/C=C2\SC(=N)N(c3nccs3)C2=O)cc1`, the EC50 was determined as 7.77 µM. In the case of `N=C1S/C(=C\c2c[nH]nc2-c2ccc(-c3ccc(Cl)cc3)cc2)C(=O)N1c1nccs1`, the EC50 is > 100 µM. Take `N=C1S/C(=C\c2c[nH]nc2-c2ccc(Cl)cc2)C(=O)N1c1nccs1`: the EC50 was determined as 15.6 µM. `N=C1S/C(=C\c2c[nH]nc2-c2ccc(C(=O)N3CCOCC3)cc2)C(=O)N1c1nccs1`: the EC50 was 7.19 µM. As to `N=C1S/C(=C\c2c[nH]nc2-c2cccc(F)c2)C(=O)N1c1nccs1`, the result was inactive. `N=C1S/C(=C\c2c[nH]nc2-c2ccc([N+](=O)[O-])cc2)C(=O)N1c1nccs1` yielded an EC50 of 23 µM. On to `N=C1S/C(=C\c2cc(Cc3ccccc3)[nH]c2-c2ccc(F)cc2)C(=O)N1c1nccs1`, for which the outcome was inactive.

On to `N=C1S/C(=C\c2c[nH]nc2-c2ccc(N3CCCCC3)cc2)C(=O)N1c1nccs1`, for which the EC50 came to 6.36 µM. As to `N=C1S/C(=C\c2n[nH]nc2-c2ccc(Cl)cc2)C(=O)N1c1nccs1`, the result was inactive. Molecule `N=C1S/C(=C\c2c[nH]nc2-c2ccc(O)cc2)C(=O)N1c1nccs1` gave an EC50 of 32.7 µM. Turning to `Cc1cc(/C=C2\SC(=N)N(c3nccs3)C2=O)c(-c2ccc(F)cc2)[nH]1`, the result was inactive. Turning to `COc1ccc(-c2ccc(-c3n[nH]cc3/C=C3\SC(=N)N(c4nccs4)C3=O)cc2)cc1`, the EC50 was 2.59 µM.

`COc1ccc(-c2n[nH]cc2/C=C2\SC(=N)N(c3nccs3)C2=O)cc1` displayed an EC50 of 14.9 µM.

Turning to `N=C1S/C(=C\c2c[nH]nc2-c2ccc(C(=O)N3CCCCC3)cc2)C(=O)N1c1nccs1`, the EC50 is 2.09 µM. On to `N=C1S/C(=C\c2n[nH]nc2-c2ccc(F)cc2)C(=O)N1c1nccs1`, for which the outcome was inactive. As for `N=C1S/C(=C\c2c[nH]nc2-c2ccc(N3CCCC3)cc2)C(=O)N1c1nccs1`, the response was half-maximal at 9.53 µM (EC50).

`COc1ccccc1-c1ccc(-c2n[nH]cc2/C=C2\SC(=N)N(c3nccs3)C2=O)cc1` yielded an EC50 of 2.41 µM.

As to `N=C1S/C(=C\c2conc2-c2ccc(Cl)cc2)C(=O)N1c1nccs1`, the result was inactive.

Regarding `N=C1S/C(=C\c2c[nH]nc2-c2ccc3c(c2)OCO3)C(=O)N1c1nccs1`, the midpoint of the response, the EC50, lay at 34.8 µM. On to `N=C1S/C(=C\c2c[nH]nc2-c2ccccc2)C(=O)N1c1nncs1`, for which the outcome was inactive. In turn, `N=C1S/C(=C\c2c[nH]nc2-c2ccc(N3CCOCC3)cc2)C(=O)N1c1nccs1` showed an EC50 of 2.93 µM. `N=C1S/C(=C\c2c[nH]nc2-c2ccc(-c3ccccc3)cc2)C(=O)N1c1nccs1` yielded an EC50 of 1.29 µM.

In the case of `Cc1cnc(N2C(=N)S/C(=C\c3c[nH]nc3-c3ccc(F)cc3)C2=O)s1`, the EC50 amounted to 23.1 µM. In turn, `Cc1ccc(-c2ccc(-c3n[nH]cc3/C=C3\SC(=N)N(c4nccs4)C3=O)cc2)cc1` returned an EC50 of 4.38 µM. Consider `N=C1S/C(=C\c2n[nH]nc2-c2ccccc2)C(=O)N1c1nccs1`, for which the result was inactive. For the molecule `N=C1S/C(=C\c2c[nH]nc2-c2ccccc2)C(=O)N1c1nccs1`, the response was half-maximal at 40.6 µM (EC50). The same measure, in the same setting: the same measure for `N=C1S/C(=C\c2c[nH]nc2-c2ccc(F)c(F)c2)C(=O)N1c1nccs1`: 6.32 µM.

On to `N=C1S/C(=C\c2c[nH]nc2-c2cccc(F)c2)C(=O)N1c1nncs1`, for which the result was inactive. As for `N=C1S/C(=C\c2c[nH]nc2-c2ccc(Br)cc2)C(=O)N1c1nccs1`, it took 34.5 µM to reach a half-maximal effect (EC50).

In the case of `N=C1S/C(=C\c2conc2-c2ccc(F)cc2)C(=O)N1c1nccs1`, the result was inactive.

Turning to `N=C1S/C(=C\c2c[nH]nc2-c2ccc(-c3cccc(F)c3)cc2)C(=O)N1c1nccs1`, the EC50 was 48 µM.

With `N=C1S/C(=C\c2c[nH]nc2-c2ccc(-c3ccc(F)cc3)cc2)C(=O)N1c1nccs1`, the EC50 amounted to 3.87 µM. In the case of `N=C1S/C(=C\c2c[nH]nc2-c2ccc(N3CCSCC3)cc2)C(=O)N1c1nccs1`, a half-maximal effect (EC50) was put at 3.3 µM. For `N=C1S/C(=C\c2cc(-c3ccccc3)[nH]c2-c2ccc(F)cc2)C(=O)N1c1nccs1`, the outcome was inactive.

As to `N=C1S/C(=C\c2c[nH]nc2-c2ccc(F)cc2)C(=O)N1c1nccs1`, the half-maximal effective concentration (EC50) amounted to 10.6 µM.

Consider `COc1ccc(-c2n[nH]nc2/C=C2\SC(=N)N(c3nccs3)C2=O)cc1`, for which the result was inactive. As to `N=C1S/C(=C\c2c[nH]nc2-c2ccc(S(=O)(=O)c3ccccc3)cc2)C(=O)N1c1nccs1`, the EC50 is 1.78 µM. Turning to `N=C1S/C(=C\c2c[nH]nc2-c2ccc(F)cc2)C(=O)N1c1nncs1`, the outcome was inactive. As to `N=C1S/C(=C\c2conc2-c2ccc([N+](=O)[O-])cc2)C(=O)N1c1nccs1`, the outcome was inactive.

What is called EC50 is the concentration at which the effect is half-maximal. Lower therefore signals greater potency.
